Assay results: patent publication US8729054B2, “3-desoxy-2-methylene-vitamin D analogs and their uses” (Wisconsin Alumni Research Foundation, priority 2011, dated 2014)
Entries after “also recorded” stand apart in the source; their conditions may differ.

Columns and labels:
vitamin D-deficient rats [1] = experiment: Bone calcium mobilization (serum calcium); assay type: in vivo, rat; conditions: for bone calcium mobilization activity as compared to 1,25(OH)2D3: rats on low calcium diet (0.02%), four consecutive ip doses
Experimental: (§1) Male, weanling Sprague-Dawley rats were placed on Diet 11 (Suda et al, J. Nutr. 100:1049, 1970) (0.47% Ca)+vitamins AEK for one week followed by Diet 11 (0.02% Ca)+vitamins AEK for 3 weeks. The rats were then switched to the same diet containing 0.47% Ca for one week followed by two weeks on the same diet containing 0.02% Ca. Dose administration began during the last week on 0.02% calcium diet. Four consecutive ip doses were given approximately 24 hours apart. Twenty-four hours after the last dose, blood was collected from the severed neck and the concentration of serum calcium determined by atomic absorption spectrometry as a measure of bone calcium mobilization. The first 10 cm of the intestine was also collected for intestinal calcium transport analysis using the everted gut sac method.

[2] = test system: Human promyelocytic leukemia (HL60) cells; experiment: HL-60 differentiation (nitro blue tetrazolium reduction); assay type: cell-based; conditions: for EC50: HL60 cells, four days after treatment, NBT reduction
Experimental: The study drugs were dissolved in ethanol and the concentrations determined using UV spectrophotometry. Serial dilutions were prepared so that a range of drug concentrations could be tested without changing the final concentration of ethanol (≦0.2%) present in the cell cultures.
Human promyelocytic leukemia (HL60) cells were grown in RPMI-1640 medium containing 10% fetal bovine serum. The cells were incubated at 37° C. in the presence of 5% CO2.
HL60 cells were plated at 1.2×10^5 cells/ml. Eighteen hours after plating, cells in duplicate were treated with drug. Four days later, the cells were harvested and a nitro blue tetrazolium reduction assay was performed (Collins et al., 1979; J. Exp. Med. 149:969-974). The percentage of differentiated cells was determined by counting a total of 200 cells and recording the number that contained intracellular black-blue formazan deposits. Verification of differentiation to monocytic cells was determined by measuring phagocytic activity (data not shown).

vitamin D-deficient rats [3] = experiment: Intestinal calcium transport (everted gut sac method); assay type: in vivo, rat; conditions: rats on low calcium diet (0.02%), four consecutive ip doses
Experimental: as §1

[4] = test system: 24-hydroxylase (24Ohase) gene promoter; experiment: In vitro transcription assay, luciferase reporter in ROS 17/2.8 (bone) cells; assay type: cell-based; conditions: for transcriptional activity in bone cells as compared to 1α,25-dihydroxyvitamin D3: 24-hydroxylase gene; for EC50: ROS 17/2.8 cells, luciferase, sixteen hours after dosing, read-out: EC50, transcriptional activity in bone cells (24-hydroxylase gene)
Experimental: Transcription activity was measured in ROS 17/2.8 (bone) cells that were stably transfected with a 24-hydroxylase (24Ohase) gene promoter upstream of a luciferase reporter gene (Arbour et al., 1998). Cells were given a range of doses. Sixteen hours after dosing the cells were harvested and luciferase activities were measured using a luminometer. RLU=relative luciferase units.

[5] = target: T1, full-length recombinant rat vitamin D receptor (Rattus norvegicus, UniProt P13053); experiment: Vitamin D receptor binding, competition with [3H]-1,25(OH)2D3; conditions: full-length recombinant rat VDR; for Ki: 1 nM radioligand
T1 construct: Full-length recombinant rat receptor was expressed in E. coli BL21 (DE3) Codon Plus RIL cells; histidine tag (C); made in house; host or cells: E. coli BL21 (DE3) Codon Plus RIL
T1 sequence (P13053 1-423): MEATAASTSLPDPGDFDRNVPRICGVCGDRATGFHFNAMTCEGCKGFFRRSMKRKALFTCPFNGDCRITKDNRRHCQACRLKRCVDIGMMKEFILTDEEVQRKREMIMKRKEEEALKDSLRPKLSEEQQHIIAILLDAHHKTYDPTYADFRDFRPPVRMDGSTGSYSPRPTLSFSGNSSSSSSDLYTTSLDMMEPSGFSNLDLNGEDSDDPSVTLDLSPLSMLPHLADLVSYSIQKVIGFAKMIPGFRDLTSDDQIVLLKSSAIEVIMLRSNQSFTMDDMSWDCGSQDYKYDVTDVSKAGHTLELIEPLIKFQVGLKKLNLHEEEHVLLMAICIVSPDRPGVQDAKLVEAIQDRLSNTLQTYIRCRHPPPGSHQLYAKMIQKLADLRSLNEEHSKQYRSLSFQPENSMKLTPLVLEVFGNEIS
Experimental: Full-length recombinant rat receptor was expressed in E. coli BL21 (DE3) Codon Plus RIL cells and purified to homogeneity using two different column chromatography systems. The first system was a nickel affinity resin that utilizes the C-terminal histidine tag on this protein. The protein that was eluted from this resin was further purified using ion exchange chromatography (S-Sepharose Fast Flow). Aliquots of the purified protein were quick frozen in liquid nitrogen and stored at −80° C. until use. For use in binding assays, the protein was diluted in TEDK50 (50 mM Tris, 1.5 mM EDTA, pH 7.4, 5 mM DTT, 150 mM KCI) with 0.1% Chaps detergent. The receptor protein and ligand concentration was optimized such that no more than 20% of the added radiolabeled ligand was bound to the receptor.
Radiolabeled and unlabeled ligands were added to 100 mcl of the diluted protein at a final ethanol concentration of ≦10%, mixed and incubated overnight on ice to reach binding equilibrium. The following day, 100 mcl of hydroxylapatite slurry (50%) was added to each tube and mixed at 10-minute intervals for 30 minutes. The hydroxylapaptite was collected by centrifugation and then washed three times with Tris-EDTA buffer (50 mM Tris, 1.5 mM EDTA, pH 7.4) containing 0.5% Titron X-100. After the final wash, the pellets were transferred to scintillation vials containing 4 ml of Biosafe II scintillation cocktail, mixed and placed in a scintillation counter. Total binding was determined from the tubes containing only radiolabeled ligand.

SMILES | serum calcium levels (vitamin D-deficient rats [1]; at the dosages tested) | EC50 [2] [nM] | mobilization of bone calcium as compared to native hormone at the same dose (vitamin D-deficient rats [1]; 780 pmol/day for 4 consecutive days) | bone calcium mobilization activity as compared to 1,25(OH)2D3 (vitamin D-deficient rats [1]) | intestinal calcium transport activity as compared to 1,25(OH)2D3 (vitamin D-deficient rats [3]) | transcriptional activity in bone cells as compared to 1α,25-dihydroxyvitamin D3 [4] | EC50 [4] [nM] | affinity to the receptor as compared to 1,25(OH)2D3 [5] | Ki [5] [nM] | EC50 ([2]; Homo sapiens, HL-60, 96 h) [nM] | potency on HL-60 cell differentiation relative to 1,25(OH)2D3 ([2]; compared with 1,25(OH)2D3) | mobilization of bone calcium as compared to native hormone at the same dose (vitamin D-deficient rats [1]; 87 pmol/day for 4 consecutive days) | potency on HL-60 cell differentiation as compared to 1,25(OH)2D3 [2]
C=C1/C(=C\C=C2/CCC[C@]3(C)[C@@H]([C@H](C)CCCC(C)(C)O)CC[C@@H]23)C[C@@H](O)C[C@@H]1O [1α,25-dihydroxyvitamin D3, reference compound] | increased serum calcium levels | 3 |  |  |  |  |  |  |  |  |  |  | 
C=C1CC/C(=C/C=C2\CCC[C@]3(C)[C@@H]([C@@H](C)CCCC(C)(C)O)CC[C@@H]23)C(=C)[C@H]1O [3D-QMS, (20S)-3-desoxy-1α,25-dihydroxy-2-methylene-vitamin D3] |  |  | higher mobilization of bone calcium than the native hormone | more potent than the native hormone; also recorded: significantly more activity in mobilizing calcium from bone than 1,25(OH)2D3 | more potent than 1,25(OH)2D3 | about the same transcriptional activity | 0.03 | about the same affinity | 0.3 | 0.08 | about 40 times |  | 
C=C1CC/C(=C/C=C2\CCC[C@]3(C)[C@@H]([C@H](C)CCCC(C)(C)O)CC[C@@H]23)C(=C)[C@H]1O [3D-QM, (20R)-3-desoxy-1α,25-dihydroxy-2-methylene-vitamin D3] |  |  |  | about the same potency as the native hormone |  | about the same transcriptional activity | 0.2 | about the same affinity | 0.4 | 1 |  | only slightly less mobilization of bone calcium than the native hormone | about the same potency as 1,25(OH)2D3
